Measured values as given in publication PMC8438977, “Isolation of bioactive compounds from medicinal plants used in traditional medicine: Rautandiol B, a potential lead compound against Plasmodium falciparum” (BMC Complementary Medicine and Therapies, 2021).
In brackets after ≈: the same amount, converted by molar mass. Like-named read-outs stand apart in the source and are kept apart here.

Tests used:
[1] = tested on: T. brucei rhodesiense (STIB-900); assay: Anti-trypanosomal assay (Alamar Blue, 72 h); type: cell-based, Trypanosoma brucei rhodesiense
Description: T. brucei rhodesiense (STIB-900) was maintained in Minimal Essential Medium (MEM) with Earle’s salts supplemented with 3 g/L sodium bicarbonate, 4.5 g/L glucose, 25 mM HEPES, pH 7.3, 0.05 mM bathocuproinedisulfonic acid disodium salt, 1.5 mM L-cysteine, 1 mM hypoxanthine, 0.16 mM thymidine, 1 mM sodium pyruvate, 0.2 mM 2-mercaptoethanol, 1% MEM non-essential amino acid, and 15% heated fetal bovine serum, at 37 °C in a 5% CO2 incubator. To assay anti-Tbr activity, a modified reported protocol was used. Briefly, 2 × 10^4 T. brucei rhodesiense parasites in 175 μL culture media were incubated with 25 μL of varying concentrations of each compound in a 96-well plate under the same culture conditions. Following 72 h incubation, 20 μL Alamar Blue (a resazurin solution) was added in each well. The mixture was further incubated for 3 h. The fluorescence signals were measured by a spectrofluorometer at ex530/em585 nm.

[2] = tested on: Mycobacterium tuberculosis H37Rv (ATCC 27294); assay: Mycobacterium tuberculosis assay (Microplate Alamar Blue Assay, MIC); type: cell-based; details: pure compounds and controls, read-out: MTB H37Rv (MIC μM)
[3] = tested on: Plasmodium falciparum TM4/8.2; assay: Antimalaria assay, [3H] hypoxanthine incorporation, TM4/8.2 strain; type: cell-based
Description: (§1) Plasmodium falciparum TM4/8.2 and K1CB1 strains were maintained in RPMI 1640 medium supplemented with 8% human serum, 2.5 mM HEPES and 2 g/L sodium bicarbonate. Parasite cultures were incubated at 37 °C in a 3% CO2 incubator. The crude extracts/pure compounds were tested against TM4/8.2 and K1CB1 P. falciparum in vitro by the modified [^3H] hypoxanthine incorporation assay. Briefly, stock solutions of the crude extracts or pure compounds were prepared in DMSO. Various concentrations of the samples were incubated with malaria parasites with a final volume of 225 μL, 1% parasitemia, 1.5% hematocrit, 0.1% dimethylsulfoxide (DMSO) in 96-well plates. Plates were incubated for 16–18 h. Then, 25 μL [^3H]-hypoxanthine solution was added and incubated for 20 h. The parasites were harvested onto a UniFilter-96 GF/B plate (PerkinElmer, USA). The filters in the plates were air-dried, and then 25 μL of liquid scintillation fluid (Microscint, Packard) was added. The radioactivity was then measured using a microplate scintillation counter (TopCount, Packard). The IC50 values of the crude extracts/ pure compounds were determined.

[4] = tested on: Plasmodium falciparum K1CB1; assay: Antimalaria assay, [3H] hypoxanthine incorporation, K1CB1 strain; type: cell-based; details: for IC50: Plasmodium falciparum, read-out: P. f (IC50 μM) K1CB1
Description: as §1

[5] = biological target: T1, α-glucosidase (AG) (Saccharomyces cerevisiae, UniProt P53341); assay: biochemical; parameters: species or system S. cerevisiae; details: for IC50: in 50% DMSO; for inhibition at 250 µg/mL: samples 250 μg/mL in 50% DMSO, read-out: % Inhibition (AGI activity)
T1 construct: purchased Sigma
T1 sequence (P53341 whole entry): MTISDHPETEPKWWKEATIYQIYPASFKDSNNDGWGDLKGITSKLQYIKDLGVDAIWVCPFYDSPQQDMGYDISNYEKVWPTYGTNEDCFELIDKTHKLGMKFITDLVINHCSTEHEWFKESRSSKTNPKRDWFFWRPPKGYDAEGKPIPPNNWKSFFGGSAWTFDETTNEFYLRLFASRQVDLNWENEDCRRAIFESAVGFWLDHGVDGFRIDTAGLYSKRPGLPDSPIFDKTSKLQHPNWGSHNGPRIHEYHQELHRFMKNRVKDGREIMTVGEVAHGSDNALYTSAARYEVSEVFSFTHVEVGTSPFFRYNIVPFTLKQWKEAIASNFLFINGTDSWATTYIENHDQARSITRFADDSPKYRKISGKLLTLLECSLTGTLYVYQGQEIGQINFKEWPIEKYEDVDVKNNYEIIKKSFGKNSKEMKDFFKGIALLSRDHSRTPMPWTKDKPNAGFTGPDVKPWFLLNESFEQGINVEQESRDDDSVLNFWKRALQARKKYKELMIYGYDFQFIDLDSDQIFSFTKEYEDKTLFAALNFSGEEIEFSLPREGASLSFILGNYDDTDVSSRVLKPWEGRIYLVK
Description: AGI values of extracts and pure phytochemicals were quantitatively determined in a 96-well plastic plate according to the method described by Nguyen et al.. The enzyme was incubated with the samples dissolved in DMSO for 5 min before adding the substrate. The inhibition was measured spectrophotometrically in 20 mM sodium phosphate buffer pH 6.0 at 37 °C using 3.0 mM p-nitrophenyl α-D-glucopyranoside (Sigma) as the substrate and 0.25 units/mL of AG from S. cerevisiae (Sigma). The absorbance at 405 nm was measured using a microplate reader (BioTek ELx808 microplate reader, USA).

[6] = earlier reports; cited from earlier work
[7] = tested on: VERO cells; parameters: method as in PMID 32798746; details: cited from earlier work
[8] = tested on: BHK21 cells; parameters: method as in PMID 32798746; details: cited from earlier work
[9] = pure compounds and control; 72 h; read-out: T. br (IC50 μM)
[10] = Trypanosoma brucei, RHODESIENSE, 72 h, pure compounds and control; 72 h; read-out: T. br (IC50 μM)
[11] = pure compounds and controls, strain TM4/8.2, read-out: P. f (IC50 μM) TM4/8.2
[12] = pure compounds and controls, strain K1CB1
[13] = read-out: P. f (IC50 μM) TM4/8.2
[14] = Trypanosoma brucei, RHODESIENSE; pure compounds and control; 72 h; read-out: T. br (IC50 μM)

Compound: CC(C)=CCc1cc2c(cc1O)OC[C@H]1c3cc4c(cc3O[C@@H]21)OCO4
- SR (safety ratio), T. brucei rhodesiense [1]: > 5.83
- IC50 [1, 9]: 4.87 ± 0.49 µM

Compound: O=c1c(O)c(-c2ccc(O)cc2)oc2cc(O)cc(O)c12 [Compound 1, kempherol]
- MIC [2]: > 20 µM
- IC50 [1, 10]: 10.3 ± 0.38 µM
- IC50 [1, 9]: 8.74 ± 0.49 µM
- SR (safety ratio), T. brucei rhodesiense ([1]; safety ratio): 3.3
- IC50 [3, 11]: > 50 µM
- IC50 [4, 12]: > 50 µM

Compound: O=c1c(O)c(-c2ccc(O)c(O)c2)oc2cc(O)cc(O)c12 [Compound 2, quercetin]
- MIC [2]: > 20 µM
- IC50 [1, 10]: 8.44 ± 0.16 µM
- IC50 [1, 9]: 8.91 ± 0.03 µM
- SR (safety ratio), T. brucei rhodesiense ([1]; safety ratio): 4.52
- IC50 [3, 11]: > 50 µM
- IC50 [4, 12]: > 50 µM

Compound: OC[C@H]1O[C@@H](OCCc2ccc(O)cc2)[C@H](O)[C@@H](O)[C@@H]1O [Compound 4, salidroside]
- MIC [2]: > 20 µM
- IC50 [1, 10]: > 100 µM
- IC50 [3, 11]: > 100 µM
- IC50 [4, 12]: > 100 µM
- IC50 [5]: 1380 µM
- inhibition at 250 µg/mL [5]: 47.7 ± 1.8%

Compound: c1cc2cc3c(cc2o1)OCc1c-3oc2cc3c(cc12)OCO3 [Compound 5, neoduleen]
- MIC [2]: > 62.1 µM
- IC50 [3, 11]: > 31 µM
- IC50 [4, 12]: > 31 µM

Compound: c1cc2cc3c(cc2o1)OC[C@H]1c2cc4c(cc2O[C@@H]31)OCO4 [Compound 6, neodulin]
- MIC [2]: > 64.9 µM
- IC50 [3, 11]: > 32.5 µM
- IC50 [4, 12]: > 32.5 µM

Compound: COc1cc2c(cc1-c1cc3cc4ccoc4cc3oc1=O)OCO2 [Compound 10, pachyrrhizine]
- MIC [2]: > 64.7 µM
- IC50 [3, 13]: > 32.3 µM
- IC50 [4]: > 32.3 µM

Compound: COc1cc2c(cc1C1COc3cc4occc4cc3C1=O)OCO2 (centres unmarked) [Compound 11, neotenone]
- MIC [2]: > 62 µM
- IC50 [1, 10]: 17 ± 1.83 µM
- IC50 [3, 11]: > 31 µM
- IC50 [4, 12]: > 31 µM
- melting point: 174 to 175 °C

Compound: COc1ccc2c(c1)OCC(c1cc3c(cc1OC)OCO3)C2=O (centres unmarked) [Compound 12, 7-methoxy-3-(6-methoxybenzo [d] [1,3]dioxol-5-yl) chroman-4-one]
- inhibition at 250 µg/mL [5]: 17.7 ± 0.3%
- melting point: 133 to 135 °C

Compound: O=C1c2cc3ccoc3cc2O[C@]2(O)COc3cc4c(cc3[C@H]12)OCO4 [Compound 13, 12a-hydroxydolineon]
- melting point: 155 to 156 °C

Compound: O=C1c2cc3ccoc3cc2O[C@@H]2COc3cc4c(cc3[C@H]12)OCO4 [Compound 14, dolineon]
- MIC [2]: > 59.9 µM
- IC50 [1, 14]: 18.7 ± 3.2 µM
- IC50 [3, 13]: > 29.6 µM
- IC50 [4]: > 29.6 µM
- IC50 [5]: 660 µM
- inhibition at 250 µg/mL [5]: 54.2 ± 8.9%

Compound: CC(C)=CCc1cc2c(cc1O)OC[C@@H]1c3cc4c(cc3O[C@H]21)OCO4 [Compound 15, (−)-2-isopentenyl-3-hydroxy-8-9-methylenedioxypterocarpan]
- MIC [2]: > 56.8 µM
- IC50 [1, 10]: 4.87 ± 0.49 µM
- SR (safety ratio), T. brucei rhodesiense ([1]; safety ratio): > 5.83
- IC50 [3, 11]: > 28.4 µM
- IC50 [4, 12]: > 28.4 µM
- inhibition at 250 µg/mL [5]: 31.5 ± 2.1%

Compound: COc1ccc(C2COc3cc4occc4cc3C2=O)c(OC)c1OC (centres unmarked) [Compound 16, nepseudin]
- MIC [2]: > 56.4 µM
- IC50 [3, 11]: > 28.2 µM
- IC50 [4, 12]: > 28.2 µM

Compound: COc1cc2c(cc1O)[C@H]1Oc3cc4c(cc3[C@H]1CO2)OCO4 [Compound 19, (−)-2-hydroxypterocarpin]
- MIC [2]: > 56.8 µM
- IC50 [3, 11]: > 28.4 µM
- IC50 [4, 12]: > 28.4 µM
- melting point: 223 to 225 °C

Compound: C=C(C)[C@H]1Cc2c(ccc3c2O[C@@H]2COc4cc(OC)c(OC)cc4[C@@H]2C3=O)O1 [Compound 20, rotenone]
- MIC [2]: > 52.3 µM
- IC50 ([1]; Trypanosoma brucei, RHODESIENSE, 72 h, read-out: T. br (IC50 μM)): 7.51 ± 0.17 µM
- IC50 [3, 13]: > 26.2 µM
- IC50 [4]: > 26.2 µM
- cytotoxicity [6]: cytotoxic

Compound: C=C(C)C1Cc2c(ccc3c2O[C@@H]2COc4cc(OC)c(OC)cc4[C@]2(O)C3=O)O1 (some centres unmarked) [Compound 21, 12a-hydroxyrotenone]
- MIC [2]: > 55.2 µM
- IC50 [1, 14]: 8.63 ± 1.14 µM
- IC50 [3, 13]: > 27.6 µM
- IC50 [4]: > 27.6 µM
- inhibition at 250 µg/mL [5]: 19.9 ± 11.4%
- cytotoxicity [6]: cytotoxic

Compound: COc1cc2c(cc1-c1coc3cc4occc4cc3c1=O)OCO2 [Compound 22, dehydroneotenone]
- MIC [2]: > 61.7 µM
- IC50 [3, 11]: > 30.9 µM
- IC50 [4, 12]: > 30.9 µM

Compound: CC1(C)Oc2cc3c(cc2CC1O)[C@@H]1Oc2cc(O)ccc2[C@@H]1CO3 (some centres unmarked) [Compound 23, rautandiol A]
- IC50 [5]: 280 µM
- inhibition at 250 µg/mL [5]: 83.9 ± 1%
- melting point: 194 to 196 °C

Compound: CC(C)(O)C1Cc2cc3c(cc2O1)OC[C@H]1c2ccc(O)cc2O[C@@H]31 (some centres unmarked) [Compound 24, rautandiol B]
- MIC [2]: > 20 µM
- IC50 [1, 10]: 23.5 ± 1.59 µM
- IC50 [3, 11]: 0.4 ± 0.07 µM
- IC50 [4, 12]: 0.74 ± 0.29 µM
- SR (safety ratio), P. falciparum K1CB1 ([4]; safety ratio): 133
- inhibition at 250 µg/mL [5]: 29.3 ± 3.1%
- melting point: 209 to 213 °C
- cytotoxicity on VERO cells [7]: non-cytotoxic
- cytotoxicity on BHK21 cells [8]: non-cytotoxic

Compound: CC1(C)N=C(N)N=C(N)N1c1ccc(Cl)cc1 [Cycloguanil, reference compound]
- IC50 [3, 11]: 0.076 ± 0.016 µM
- IC50 [4, 12]: 10.7 ± 1.62 µM

Compound: NNC(=O)c1ccncc1 [Isoniazid, reference compound]
- MIC [2]: 0.02 µM (≈ 0.00274 µg/mL)

Compound: N=C(N)c1ccc(OCCCCCOc2ccc(C(=N)N)cc2)cc1 [Pentamidine, reference compound]
- IC50 [1, 10]: 0.007 ± 4e-05 µM

Compound: CCc1nc(N)nc(N)c1-c1ccc(Cl)cc1 [Pyrimethamine, reference compound]
- IC50 [3, 11]: 0.095 ± 0.02 µM
- IC50 [4, 12]: 23.2 ± 2.24 µM

Compound: CO[C@H]1/C=C/O[C@@]2(C)Oc3c(C)c(O)c4c(O)c(c(/C=N/N5CCN(C)CC5)c(O)c4c3C2=O)NC(=O)/C(C)=C\C=C\[C@H](C)[C@H](O)[C@@H](C)[C@@H](O)[C@@H](C)[C@H](OC(C)=O)[C@@H]1C [Rifampin, reference compound]
- MIC [2]: 0.08 µM (≈ 0.0658 µg/mL)
